What was measured:
[1] = biological target: Glutamate NMDA receptor; GRIN1/GRIN2A (Homo sapiens) (UniProt Q05586+Q12879); assay: NMDA-NR1a/NR2a Eurofins-Panlabs radioligand binding assay; format: protein-complex assay; settings: Compound concentration 10.0 uM
[2] = biological target: Prostacyclin receptor (Homo sapiens) (UniProt P43119); assay: Prostanoid IP Eurofins-Panlabs radioligand binding assay; design: ligand concentration 5 nM; settings: Compound concentration 10.0 uM
Rattus norvegicus [3] = species: Rattus norvegicus; assay: Protein Serine/Threonine Kinase, PKC, Non-Selective Eurofins-Panlabs enzyme assay; settings: Compound concentration 10.0 uM
[4] = biological target: Neurotensin receptor type 1 (Homo sapiens, UniProt P30989); assay: Neurotensin NT1 Eurofins-Panlabs radioligand binding assay; design: ligand concentration 0.02 nM, non-specific ligand with concentration 1 µM Neurotensin, incubation time 45 min, incubation temperature 25 °C
Sequence of Neurotensin receptor type 1 (P30989 whole entry): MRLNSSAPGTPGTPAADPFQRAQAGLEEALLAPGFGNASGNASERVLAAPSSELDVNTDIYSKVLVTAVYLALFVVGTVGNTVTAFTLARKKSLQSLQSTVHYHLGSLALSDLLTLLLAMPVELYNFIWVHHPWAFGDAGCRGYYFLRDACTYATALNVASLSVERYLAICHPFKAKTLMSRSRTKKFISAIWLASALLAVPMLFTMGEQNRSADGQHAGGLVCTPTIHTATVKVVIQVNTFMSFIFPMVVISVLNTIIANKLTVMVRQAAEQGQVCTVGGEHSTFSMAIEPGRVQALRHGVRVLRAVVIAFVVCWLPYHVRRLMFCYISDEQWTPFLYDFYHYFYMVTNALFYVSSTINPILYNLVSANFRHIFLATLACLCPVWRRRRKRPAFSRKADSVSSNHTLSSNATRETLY

[5] = biological target: Receptor-type tyrosine-protein phosphatase C (Homo sapiens) (UniProt P08575); assay: Inhibition of Protein Tyrosine Phosphatase, PTPRC (CD45) at 10 µM in the Eurofins-Panlabs enzyme assay (Eurofins_assay_190010); settings: Compound concentration 10.0 uM
D(1A) dopamine receptor = D(1A) dopamine receptor (Homo sapiens, UniProt P21728); settings: Compound concentration 10.0 uM
[6] = biological target: 5-hydroxytryptamine receptor 1B (Homo sapiens) (UniProt P28222); assay: Inhibition of Serotonin (5-Hydroxytryptamine) 5-HT1B at 10 µM in the Eurofins-Panlabs radioligand binding assay (Eurofins_assay_271200); settings: Compound concentration 10.0 uM
Sequence of 5-hydroxytryptamine receptor 1B (Homo sapiens) (P28222 whole entry): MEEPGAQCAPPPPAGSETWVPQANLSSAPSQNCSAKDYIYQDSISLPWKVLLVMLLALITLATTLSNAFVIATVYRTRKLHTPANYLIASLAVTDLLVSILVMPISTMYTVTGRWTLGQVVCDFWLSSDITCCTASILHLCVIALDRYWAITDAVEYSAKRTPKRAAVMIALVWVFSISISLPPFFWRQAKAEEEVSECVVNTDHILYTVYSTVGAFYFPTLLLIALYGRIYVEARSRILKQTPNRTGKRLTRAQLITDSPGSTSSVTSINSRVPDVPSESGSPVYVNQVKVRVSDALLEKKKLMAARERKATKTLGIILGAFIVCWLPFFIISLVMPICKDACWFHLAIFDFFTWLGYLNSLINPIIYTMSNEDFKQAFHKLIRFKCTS

[7] = biological target: Somatostatin receptor type 4 (Homo sapiens, UniProt P31391); assay: Somatostatin sst4 Eurofins-Panlabs radioligand binding assay; design: ligand concentration 0.1 nM, non-specific ligand with concentration 1 µM Somatostatin-14, incubation time 45 min, incubation temperature 25 °C
Sequence of Somatostatin receptor type 4 (P31391 whole entry): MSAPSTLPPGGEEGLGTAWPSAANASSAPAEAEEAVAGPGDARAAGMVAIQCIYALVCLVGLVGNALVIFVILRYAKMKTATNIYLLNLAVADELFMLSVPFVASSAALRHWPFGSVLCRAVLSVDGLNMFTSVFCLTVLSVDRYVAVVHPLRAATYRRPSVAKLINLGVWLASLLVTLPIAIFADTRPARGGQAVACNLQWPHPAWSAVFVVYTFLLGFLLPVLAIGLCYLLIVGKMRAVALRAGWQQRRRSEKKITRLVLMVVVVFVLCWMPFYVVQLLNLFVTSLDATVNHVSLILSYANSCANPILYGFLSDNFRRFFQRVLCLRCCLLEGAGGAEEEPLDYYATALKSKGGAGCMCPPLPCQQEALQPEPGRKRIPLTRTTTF

[8] = biological target: Epidermal growth factor receptor (Homo sapiens, UniProt P00533); assay: Inhibition of Epidermal Growth Factor (EGF) at 10 µM in the Eurofins-Panlabs radioligand binding assay (Eurofins_assay_225510)
[9] = biological target: Melanocortin receptor 5 (Homo sapiens) (UniProt P33032); assay: Inhibition of Melanocortin MC5 at 10 µM in the Eurofins-Panlabs radioligand binding assay (Eurofins_assay_251400); design: ligand concentration 0.035 nM; settings: Compound concentration 10.0 uM
Sequence of Melanocortin receptor 5 (Homo sapiens) (P33032 whole entry): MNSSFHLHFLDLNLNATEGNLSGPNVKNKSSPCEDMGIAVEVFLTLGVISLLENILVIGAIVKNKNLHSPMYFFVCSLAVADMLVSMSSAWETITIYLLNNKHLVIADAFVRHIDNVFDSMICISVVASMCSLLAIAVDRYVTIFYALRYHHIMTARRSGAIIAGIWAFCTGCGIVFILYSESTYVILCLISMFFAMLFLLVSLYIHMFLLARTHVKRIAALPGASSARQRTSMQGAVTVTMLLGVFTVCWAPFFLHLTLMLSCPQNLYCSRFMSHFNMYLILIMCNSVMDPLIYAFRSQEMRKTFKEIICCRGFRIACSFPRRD

[10] = biological target: T1, D(4) dopamine receptor (Homo sapiens) (UniProt P21917); assay: Dopamine D4.4 Eurofins-Panlabs radioligand binding assay; design: ligand concentration 1.2 nM; settings: Compound concentration 10.0 uM
T1 sequence (whole entry): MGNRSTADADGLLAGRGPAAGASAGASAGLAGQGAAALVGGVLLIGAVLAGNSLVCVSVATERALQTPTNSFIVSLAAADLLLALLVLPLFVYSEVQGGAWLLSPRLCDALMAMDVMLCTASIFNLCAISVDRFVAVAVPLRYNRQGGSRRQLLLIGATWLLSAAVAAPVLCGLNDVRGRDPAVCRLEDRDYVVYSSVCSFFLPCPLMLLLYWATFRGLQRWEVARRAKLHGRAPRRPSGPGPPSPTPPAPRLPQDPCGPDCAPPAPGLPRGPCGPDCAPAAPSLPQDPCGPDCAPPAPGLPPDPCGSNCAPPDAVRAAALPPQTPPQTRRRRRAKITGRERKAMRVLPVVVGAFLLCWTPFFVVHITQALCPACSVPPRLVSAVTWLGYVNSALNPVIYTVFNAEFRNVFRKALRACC

[11] = biological target: voltage-gated sodium channel, site 2 (Rattus norvegicus, UniProt F1LQQ7+O08562+O88420+O88457+P04774+P04775+P08104+P15389+P15390+Q62968); assay: Inhibition of Sodium Channel, Site 2 at 10 µM in the Eurofins-Panlabs radioligand binding assay (Eurofins_assay_279510); format: protein assay; design: ligand concentration 5 nM, non-specific ligand with concentration 100 µM Veratridine, incubation time 60 min, incubation temperature 37 °C; settings: male, Wistar, rat whole brain (except cerebellum) membranes, probe [3H] Batrachotoxinin, 5 nM, compound concentration 10 uM
Caspase-3 (Homo sapiens) = Caspase-3 (Homo sapiens) (UniProt P42574); assay: Peptidase, CASP3 (Caspase 3) Eurofins-Panlabs enzyme assay; settings: Compound concentration 10.0 uM
[12] = biological target: T2, 5-hydroxytryptamine receptor 2C (Homo sapiens) (UniProt P28335); settings: Compound concentration 10.0 uM
T2 sequence (whole entry): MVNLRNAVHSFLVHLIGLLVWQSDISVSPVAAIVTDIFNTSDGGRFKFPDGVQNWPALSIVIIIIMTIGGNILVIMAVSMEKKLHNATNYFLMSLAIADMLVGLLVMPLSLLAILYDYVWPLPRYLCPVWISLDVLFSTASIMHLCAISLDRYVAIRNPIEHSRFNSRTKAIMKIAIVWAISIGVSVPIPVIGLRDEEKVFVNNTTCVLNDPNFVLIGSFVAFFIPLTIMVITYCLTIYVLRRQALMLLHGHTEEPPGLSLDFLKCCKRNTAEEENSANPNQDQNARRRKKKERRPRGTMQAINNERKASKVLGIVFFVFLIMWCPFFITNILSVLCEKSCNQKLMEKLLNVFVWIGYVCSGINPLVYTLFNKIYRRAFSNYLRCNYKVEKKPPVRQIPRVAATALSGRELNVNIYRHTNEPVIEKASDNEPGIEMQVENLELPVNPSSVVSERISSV

[13] = biological target: Kappa-type opioid receptor (Homo sapiens, UniProt P41145)
Sequence of Kappa-type opioid receptor (P41145 whole entry): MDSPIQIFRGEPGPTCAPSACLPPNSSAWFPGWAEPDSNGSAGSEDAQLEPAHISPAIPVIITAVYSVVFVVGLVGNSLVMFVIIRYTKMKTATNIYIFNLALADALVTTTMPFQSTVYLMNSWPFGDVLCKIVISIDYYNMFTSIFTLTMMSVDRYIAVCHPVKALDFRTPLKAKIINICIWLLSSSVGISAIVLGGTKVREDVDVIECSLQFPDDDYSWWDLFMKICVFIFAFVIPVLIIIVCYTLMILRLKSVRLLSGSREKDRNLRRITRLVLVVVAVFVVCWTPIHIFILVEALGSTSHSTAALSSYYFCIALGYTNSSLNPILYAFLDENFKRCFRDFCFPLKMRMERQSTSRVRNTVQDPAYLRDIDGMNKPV

[14] = biological target: C-C chemokine receptor type 1 (Homo sapiens) (UniProt P32246); assay: Chemokine CCR1 Eurofins-Panlabs radioligand binding assay; settings: Compound concentration 10.0 uM
Sequence of C-C chemokine receptor type 1 (Homo sapiens) (P32246 whole entry): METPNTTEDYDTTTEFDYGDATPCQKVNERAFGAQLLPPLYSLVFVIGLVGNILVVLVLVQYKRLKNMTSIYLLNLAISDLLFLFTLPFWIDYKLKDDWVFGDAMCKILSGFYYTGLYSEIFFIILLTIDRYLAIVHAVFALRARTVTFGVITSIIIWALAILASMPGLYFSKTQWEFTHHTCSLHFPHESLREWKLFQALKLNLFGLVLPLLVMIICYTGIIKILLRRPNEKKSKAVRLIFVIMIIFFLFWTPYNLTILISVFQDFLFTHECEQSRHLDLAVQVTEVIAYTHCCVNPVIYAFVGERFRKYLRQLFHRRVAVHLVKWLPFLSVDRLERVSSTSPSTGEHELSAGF

[15] = biological target: SNF-related serine/threonine-protein kinase (Homo sapiens) (UniProt Q9NRH2); settings: Compound concentration 1000.0 nM
Sequence of SNF-related serine/threonine-protein kinase (Homo sapiens) (Q9NRH2 whole entry): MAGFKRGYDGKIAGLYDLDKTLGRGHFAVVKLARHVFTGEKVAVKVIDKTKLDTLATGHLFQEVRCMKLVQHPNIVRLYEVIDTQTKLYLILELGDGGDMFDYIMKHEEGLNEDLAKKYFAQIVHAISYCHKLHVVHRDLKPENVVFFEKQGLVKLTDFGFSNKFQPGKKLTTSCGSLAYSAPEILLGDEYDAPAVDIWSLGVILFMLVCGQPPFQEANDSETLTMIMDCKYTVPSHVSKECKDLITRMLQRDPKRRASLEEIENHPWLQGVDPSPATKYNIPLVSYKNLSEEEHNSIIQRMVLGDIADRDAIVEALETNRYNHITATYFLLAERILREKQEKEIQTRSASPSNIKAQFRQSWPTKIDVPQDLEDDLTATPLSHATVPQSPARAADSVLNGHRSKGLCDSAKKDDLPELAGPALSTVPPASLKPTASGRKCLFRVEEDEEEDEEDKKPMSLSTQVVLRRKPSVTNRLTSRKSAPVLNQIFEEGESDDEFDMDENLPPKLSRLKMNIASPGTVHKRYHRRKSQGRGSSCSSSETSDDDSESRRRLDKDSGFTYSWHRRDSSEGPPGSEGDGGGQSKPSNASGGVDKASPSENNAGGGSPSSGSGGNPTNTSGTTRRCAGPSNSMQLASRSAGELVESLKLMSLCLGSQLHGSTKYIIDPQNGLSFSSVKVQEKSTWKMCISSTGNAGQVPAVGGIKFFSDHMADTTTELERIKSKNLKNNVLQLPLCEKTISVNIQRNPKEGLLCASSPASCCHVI

[16] = biological target: Peroxisome proliferator-activated receptor alpha (Homo sapiens) (UniProt Q07869); assay: PPARalpha Eurofins-Panlabs radioligand binding assay; settings: Compound concentration 10.0 uM
Sequence of Peroxisome proliferator-activated receptor alpha (Homo sapiens) (Q07869 whole entry): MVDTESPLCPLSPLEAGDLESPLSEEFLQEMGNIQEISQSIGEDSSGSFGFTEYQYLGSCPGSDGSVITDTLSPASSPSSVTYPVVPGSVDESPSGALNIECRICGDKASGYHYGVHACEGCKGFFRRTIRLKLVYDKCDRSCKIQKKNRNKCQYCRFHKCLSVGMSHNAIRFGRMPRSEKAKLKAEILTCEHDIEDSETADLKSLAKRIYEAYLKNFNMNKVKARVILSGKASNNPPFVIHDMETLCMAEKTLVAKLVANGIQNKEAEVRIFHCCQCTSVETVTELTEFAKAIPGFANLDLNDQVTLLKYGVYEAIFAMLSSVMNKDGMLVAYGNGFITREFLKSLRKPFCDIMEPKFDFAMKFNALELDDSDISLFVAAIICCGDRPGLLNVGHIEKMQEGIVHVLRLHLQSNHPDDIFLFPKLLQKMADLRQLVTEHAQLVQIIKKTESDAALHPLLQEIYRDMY

[17] = biological target: Somatostatin receptor type 3 (Homo sapiens) (UniProt P32745); assay: Somatostatin sst3 Eurofins-Panlabs radioligand binding assay; settings: concentration not given here
Sequence of Somatostatin receptor type 3 (Homo sapiens) (P32745 whole entry): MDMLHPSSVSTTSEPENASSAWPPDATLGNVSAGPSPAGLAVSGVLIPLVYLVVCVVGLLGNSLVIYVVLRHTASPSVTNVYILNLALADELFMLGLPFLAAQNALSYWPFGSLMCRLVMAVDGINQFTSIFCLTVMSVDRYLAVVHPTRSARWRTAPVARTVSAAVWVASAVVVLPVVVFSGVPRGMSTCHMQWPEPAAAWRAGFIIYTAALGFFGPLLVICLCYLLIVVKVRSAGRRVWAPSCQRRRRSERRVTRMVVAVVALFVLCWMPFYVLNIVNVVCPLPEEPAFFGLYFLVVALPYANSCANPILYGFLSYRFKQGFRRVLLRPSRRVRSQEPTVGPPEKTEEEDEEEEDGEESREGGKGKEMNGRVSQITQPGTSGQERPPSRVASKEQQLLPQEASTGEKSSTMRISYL

Rattus norvegicus [18] = species: Rattus norvegicus; assay: Inhibition of Glutamate, NMDA, Phencyclidine at 10 µM in the Eurofins-Panlabs radioligand binding assay (Eurofins_assay_233000); format: protein-complex assay
Insulin receptor = Insulin receptor (Homo sapiens, UniProt P06213); settings: Rattus norvegicus; Compound concentration 10.0 uM
[19] = biological target: Bombesin receptor (Rattus norvegicus) (UniProt P52500+P24053+Q8K418); assay: Bombesin, Non-Selective Eurofins-Panlabs radioligand binding assay; format: protein assay; settings: Compound concentration 10.0 uM
Rattus norvegicus [20] = species: Rattus norvegicus; assay: Inhibition of Glycine, Strychnine-Sensitive at 10 µM in the Eurofins-Panlabs radioligand binding assay (Eurofins_assay_239000); settings: Compound concentration 10.0 uM
Caspase-8 (Homo sapiens) = Caspase-8 (Homo sapiens) (UniProt Q14790); assay: Peptidase, CASP8 (Caspase 8) Eurofins-Panlabs enzyme assay; settings: concentration not given here
[21] = biological target: Calcitonin receptor (Homo sapiens) (UniProt P30988); assay: Inhibition of Calcitonin at 10 µM in the Eurofins-Panlabs radioligand binding assay (Eurofins_assay_213610)
Sequence of Calcitonin receptor (Homo sapiens) (P30988 whole entry): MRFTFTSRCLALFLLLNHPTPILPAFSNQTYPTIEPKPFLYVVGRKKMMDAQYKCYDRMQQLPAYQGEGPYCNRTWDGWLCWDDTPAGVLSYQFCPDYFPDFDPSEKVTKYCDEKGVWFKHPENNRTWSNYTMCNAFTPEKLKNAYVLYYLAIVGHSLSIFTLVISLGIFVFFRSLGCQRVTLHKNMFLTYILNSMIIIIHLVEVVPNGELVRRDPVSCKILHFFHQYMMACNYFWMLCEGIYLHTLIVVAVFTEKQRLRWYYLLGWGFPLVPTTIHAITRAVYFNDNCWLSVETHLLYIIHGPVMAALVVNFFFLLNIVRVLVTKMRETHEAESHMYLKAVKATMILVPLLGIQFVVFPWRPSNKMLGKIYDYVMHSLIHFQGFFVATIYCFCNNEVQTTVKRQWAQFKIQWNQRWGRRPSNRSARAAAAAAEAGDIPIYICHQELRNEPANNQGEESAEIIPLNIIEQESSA

[22] = biological target: Nociceptin receptor (Homo sapiens) (UniProt P41146); assay: Orphanin ORL1 Eurofins-Panlabs radioligand binding assay; settings: Compound concentration 10.0 uM

Sequence of Prostacyclin receptor (Homo sapiens) (P43119 whole entry): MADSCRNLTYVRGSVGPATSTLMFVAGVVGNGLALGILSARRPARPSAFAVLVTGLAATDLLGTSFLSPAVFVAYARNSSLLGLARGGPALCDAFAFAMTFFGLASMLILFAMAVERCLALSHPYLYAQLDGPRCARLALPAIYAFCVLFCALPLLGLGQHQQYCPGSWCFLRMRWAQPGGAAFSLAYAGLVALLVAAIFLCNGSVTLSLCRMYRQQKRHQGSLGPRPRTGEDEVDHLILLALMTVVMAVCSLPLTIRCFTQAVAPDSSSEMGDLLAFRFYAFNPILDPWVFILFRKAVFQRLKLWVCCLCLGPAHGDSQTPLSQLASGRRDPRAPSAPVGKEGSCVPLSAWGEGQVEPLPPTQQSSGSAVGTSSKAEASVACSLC

O=C(O)c1cc(-c2ccc(C3CCNCC3)cc2)c2ccc(-c3ccc(C(F)(F)F)cc3)cc2c1 [PPTN]
inhibition [1]: 12%
inhibition [2]: -3%
inhibition (Rattus norvegicus [3]): -5%
IC50 [4]: 8.66 µM
Ki [4]: 6.97 µM
inhibition ([4]; Compound concentration 0.01 uM): 11%
inhibition ([4]; Compound concentration 0.1 uM): 10%
inhibition ([4]; Compound concentration 1.0 uM): -9%
inhibition ([4]; Compound concentration 10.0 uM): 69%
inhibition [5]: -7%
inhibition (D(1A) dopamine receptor): 22%
inhibition [6]: -4%
IC50 [7]: 5.3 µM
inhibition ([7]; Compound concentration 0.01 uM): -5%
inhibition ([7]; Compound concentration 0.1 uM): 7%
inhibition ([7]; Compound concentration 1.0 uM): 17%
inhibition ([7]; Compound concentration 10.0 uM): 65%
inhibition [8]: 35%
inhibition [9]: 41%
inhibition [10]: -8%
inhibition at 60 min, 10 µM [11]: -10% (not active)
inhibition (Caspase-3 (Homo sapiens)): 3%
inhibition [12]: 20%
inhibition ([13]; Compound concentration 0.1 uM): -1%
inhibition ([13]; Compound concentration 1.0 uM): 1%
inhibition ([13]; Compound concentration 10.0 uM): 63%
inhibition [14]: -9%
residual activity [15]: 71%
inhibition [16]: 15%
inhibition [17]: 35%
inhibition (Rattus norvegicus [18]): 17%
inhibition (Insulin receptor): -8%
inhibition [19]: 4%
inhibition (Rattus norvegicus [20]): -3%
inhibition (Caspase-8 (Homo sapiens)): 7%
inhibition [21]: 5%
inhibition [22]: 12%
